US20250090557A1 (priority 2020, published 2025)
“Also recorded” adds a separate entry of the source. Structures can show the parent of a compound that is named as a salt. Where two headings read alike, the source gives them in different places.

Key:
uninfected cultures = settings: 10-1000 nM
HO-1 = HO-1 protein levels in Calu3 cells (flow cytometry); assay type: cell-based, human
IL-6 = assay type: cell-based, human
Keap1 = Keap1 protein levels in Calu3 cells (flow cytometry); assay type: cell-based, human; settings: infected and uninfected Calu3, pretreatment, data not shown
SARS-CoV-2 = assay type: cell-based
Nrf2 = Nrf2 protein levels in Calu3 cells (flow cytometry); assay type: cell-based, human; settings: infected and uninfected Calu3, pretreatment, data not shown
[1] = Calu3, 0.25 μM pretreatment, data not shown

CC1(C)CC(NC(=O)C[P+](c2ccccc2)(c2ccccc2)c2ccccc2)CC(C)(C)N1[O] [Mito-TEMPO]
cytotoxicity (XTT assay) (uninfected cultures): no observed cytotoxicity

COC(=O)/C=C/C(=O)OC [DMF, dimethyl fumarate]
HO-1 protein levels (HO-1; Calu3, pretreatment 10 μM, data not shown): increased HO-1 protein levels | release of IL-6 from infected cells (ELISA) (IL-6; Calu3, pretreatment 10 μM for 24 h): reduction in subsequent release of IL-6 | protein levels of Keap (Keap1): reduced protein levels of Keap | viral titers / antiviral effect vs vehicle control (TCID50) (SARS-CoV-2; Calu3, 10 μM DMF alone, FIG. 11-a): did not produce an observable antiviral effect; also recorded: did not reduce viral titers | release of progeny SARS-CoV-2 virus particles to the cell supernatant (TCID50 assay) (SARS-CoV-2; Calu3, pretreatment with 10 μM DMF for 24 h, FIG. 5-a): reduction in subsequent release of progeny SARS-CoV-2 virus particles | cytotoxicity (XTT assay) (Calu3 cells; uninfected Calu3, 100 μM, 24 h): cytotoxic | protein levels of Nrf2 (Nrf2): did not impact protein levels of Nrf2

CCCCCCCCCC[P+](c1ccccc1)(c1ccccc1)c1ccccc1.[Br-] [DTPP]
antiviral activity (TCID50 assay) (SARS-CoV-2; Calu3, 1000 nM): Antiviral activity was observed | cytotoxicity (XTT assay) (Calu3 cells; uninfected cells, 1000 nM): not cytotoxic

brusatol
HO-1 protein levels (HO-1): increased the HO-1 protein levels | impact on the effect of Mito-MES on HO-1 protein levels (HO-1; Calu3, 0.25 μM, data not shown): did not have an impact on the effect of Mito-MES on HO-1 protein levels | effect on the anti-inflammatory effect of Mito-MES (IL-6 ELISA) (IL-6; Calu3, 0.25 μM): inhibited the anti-inflammatory effect of Mito-MES | release of IL-6 to the cell supernatant from infected cells (ELISA) (IL-6; Calu3, pretreatment 0.25 μM): significantly increased subsequent release of IL-6 | protein levels of Keap (Keap1): increased protein levels of Keap | effect on the antiviral effect of DMF and Mito-MES (TCID50) (SARS-CoV-2; Calu3, 0.25 μM pretreatment for 24 h): inhibited the antiviral effect of both DMF alone and Mito-MES | SARS-CoV-2 infection (flow cytometry) (SARS-CoV-2; [1]): directly enhanced SARS-CoV-2 infection | effect on the reduction in percent infected cells induced by Mito-MES and DMF (SARS-CoV-2; [1]): attenuated the reduction in the percent of infected Calu3 cells | release of progeny SARS-CoV-2 virus particles to the cell supernatant (TCID50) (SARS-CoV-2; Calu3, pretreatment with 0.25 μM): significantly increased subsequent release of progeny SARS-CoV-2 virus particles | protein levels of Nrf2 (Nrf2): reduced protein levels of Nrf2
